Earlier results on 4 compounds are cited in PubChem BioAssay AID1259409 (Chemical Carcinogenesis Research Information System (CCRIS), 2018).

This data set relates to rodent chemically induced tumor inhibition, incidence and multiplicity. Nature of the data set: CCRIS tumor inhibitor studies. An excerpt: The CCRIS database contains chemical records with carcinogenicity, mutagenicity, tumor promotion, and tumor inhibition test results. It was developed by the National Cancer Institute (NCI). Data are derived from studies cited in primary journals, current awareness tools, NCI reports, and other sources. Test results have been reviewed by experts in carcinogenesis and mutagenesis.
CCRIS provides historical information from the years 1985 - 2011. It is no longer updated.
This is an archive assay for CCRIS tumor inhibitor studies.

“And” between values parts separate entries of the source, which are not always exact repeats. Equal entries are not always repeated.

In the case of `O=C(c1ccc(OCCN2CCCCC2)cc1)c1c(-c2ccc(O)cc2)sc2cc(O)ccc12`, the “tumour outcome (control, treated, inhibition, significance)” value is, setting by setting: (Carcinogen: 7,12-DIMETHYLBENZ[A]ANTHRACENE (DMBA) [57-97-6], Dose [Inhibitor]: 50 MG/KG/D FOR 37 WK (STUDY DURATION: 37 WK), Route [Inhibitor]: ORAL GAVAGE, Species: MOUSE, Strain/Sex: SENCAR/FEMALE, Target Tissue: Type of Lesion: MAMMARY: CARCINOMA, Dose [Carcinogen]: 20 UG/D FOR 6 WKS (STUDY DURATION: 37 WKS), Promoter: MEDROXYPROGESTERONE ACETATE (71-58-9)) 10/21 (48%); 5/17 (29%), 40%, p=0.20; (Carcinogen: ESTRADIOL, 50-28-2, Dose [Inhibitor]: 0, 25 MG PELLET 2 PELLETS IMPLANTED EVERY 3 MO BEGINNING 15 D PRIOR TO CARCINOGEN DOSE (STUDY DURATION: 8 MO), Route [Inhibitor]: SUBCUTANEOUS IMPLANT, Species: HAMSTER, Strain/Sex: SYRIAN/MALE, Target Tissue: Type of Lesion: KIDNEY: TUMOR, Dose [Carcinogen]: 25 MG PELLET IMPLANTED EVERY 3 MO, Promoter: NONE USED) 5/5 (100%), 3/4 (75%), 25%, not significant; (Carcinogen: N-METHYL-N-NITROSOUREA, 684-93-5, Dose [Inhibitor]: 0, 5 MG/KG BW/D 2/WK TO DORSAL AREA STARTING 10 D BEFORE CARCINOGEN TREATMENT FOR THE DURATION OF THE STUDY (STUDY DURAT, Route [Inhibitor]: SUBCUTANEOUSLY, Species: RAT, Strain/Sex: SPRAGUE-DAWLEY/FEMALE, Target Tissue: Type of Lesion: MAMMARY GLAND: TUMOR, Dose [Carcinogen]: 50 MG/KG BW 2/WK FOR 1 WK BW 43-54 POSTNATAL DAYS) 80%, 26%, 67%, p<0.001; (Carcinogen: N-METHYL-N-NITROSOUREA, 684-93-5, Dose [Inhibitor]: 0, 20 MG/KG OF DIET FOR DURATION OF STUDY BEGINNING 1 WK POST CARCINOGEN DOSE (STUDY DURATION: 5 MO), Route [Inhibitor]: ORAL, Species: RAT, Strain/Sex: SPRAGUE-DAWLEY/FEMALE, Target Tissue: Type of Lesion: MAMMARY GLAND: TUMOR, Dose [Carcinogen]: 50 MG/KG BW ONCE, Promoter: NONE USED) 23/24 (96%), 10/12 (83%), 14%, p=0.26 and 29/30 (97%), 14/30 (47%), 52%, p=0.0001; (Carcinogen: N-METHYL-N-NITROSOUREA, 684-93-5, Dose [Inhibitor]: 0, 60 MG/KG OF DIET FOR DURATION OF STUDY BEGINNING 1 WK POST CARCINOGEN DOSE (STUDY DURATION: 5 MO), Route [Inhibitor]: ORAL, Species: RAT, Strain/Sex: SPRAGUE-DAWLEY/FEMALE, Target Tissue: Type of Lesion: MAMMARY GLAND: TUMOR, Dose [Carcinogen]: 50 MG/KG BW ONCE, Promoter: NONE USED) 23/24 (96%), 8/12 (67%), 30%, p=0.03 and 29/30 (97%), 15/30 (50%), 48%, p=0.0002.
Consider `CC1=C(/C=C/C(C)=C/C=C/C(C)=C\C(=O)NCCO)C(C)(C)CCC1`, for which the “tumour outcome (control, treated, inhibition, significance)” value runs as follows: (Carcinogen: N-BUTYL-N-(4-HYDROXYBUTYL)NITROSAMINE, 3817-11-6, Dose [Inhibitor]: 1.5 MMOL/KG DIET DAILY FOR 159 D STARTING 1 WK AFTER THE FINAL CARCINOGEN DOSE (STUDY DURATION: 216 D), Route [Inhibitor]: ORAL, Species: MOUSE, Strain/Sex: DBF1/MALE, Target Tissue: Type of Lesion: URINARY BLADDER: TRANSITIONAL CELL CARCINOMA, Dose [Carcinogen]: 7.5 MG 1/WK FOR 8 WK, Promoter: NONE USED) 29/98 (30%), 16/97 (17%), 43%, p<0.05; (Carcinogen: N-BUTYL-N-(4-HYDROXYBUTYL)NITROSAMINE, 3817-11-6, Dose [Inhibitor]: 1.5 MMOL/KG IN DIET FOR 159 D STARTING 1 WK AFTER LAST CARCINOGEN DOSE (STUDY DURATION: 216 D), Route [Inhibitor]: ORAL, Species: MOUSE, Strain/Sex: BDF/MALE, Target Tissue: Type of Lesion: URINARY BLADDER: TRANSITIONAL CELL CARCINOMA, Dose [Carcinogen]: 7.5 MG 1/WK FOR 8 WK, Promoter: NONE USED) 29/98 (30%), 16/97 (17%), 43%, p<0.05.
As to `CC(C)(Oc1ccc(CCNC(=O)c2ccc(Cl)cc2)cc1)C(=O)O`, the “tumour outcome (control, treated, inhibition, significance)” value by setting is: (Carcinogen: AZOXYMETHANE (25843-45-2), Dose [Inhibitor]: 0, 0.05% ADMINISTERED 1 WK AFTER END OF DEXTRAN SODIUM SULFATE TREATMENT FOR 14 WKS (STUDY DURATION: 17 WKS), Route [Inhibitor]: DIET, Species: MOUSE, Strain/Sex: CD-1/FEMALE (10,10)/(10,10), Target Tissue: Type of Lesion: COLON: ADENOCARCINOMA, Dose [Carcinogen]: 10 MG/KG ONCE, Promoter: DEXTRAN SODIUM SULFATE (9011-18-1)) 10/10 (100%), 6/10 (60%), 40%, p<0.05; (Carcinogen: AZOXYMETHANE (25843-45-2), Dose [Inhibitor]: 0, 0.05% ADMINISTERED 1 WK AFTER END OF DEXTRAN SODIUM SULFATE TREATMENT FOR 14 WKS (STUDY DURATION: 17 WKS), Route [Inhibitor]: DIET, Species: MOUSE, Strain/Sex: CD-1/FEMALE (10,10)/(10,10), Target Tissue: Type of Lesion: COLON: ADENOMA, Dose [Carcinogen]: 10 MG/KG ONCE, Promoter: DEXTRAN SODIUM SULFATE (9011-18-1)) 10/10 (100%), 7/10 (70%), 30%, not significant.
Take `CC(C(=O)O)c1ccc2c(c1)[nH]c1ccc(Cl)cc12` (stereo not given): the “tumour outcome (control, treated, inhibition, significance)” value runs as follows: (Carcinogen: 7,12-DIMETHYLBENZ[A]ANTHRACENE, 57-97-6, Dose [Inhibitor]: 0, 0.02% IN 20% FAT DIET CONTAINING 0.5% LINOLEIC ACID BEGINNING 7 D POST CARCINOGEN DOSE AND CONTINUING FOR DURATION OF, Route [Inhibitor]: ORAL, Species: RAT, Strain/Sex: SPRAGUE-DAWLEY/FEMALE, Target Tissue: Type of Lesion: MAMMARY GLAND: ADENOCARCINOMA, Dose [Carcinogen]: 5 MG AT 50-53 DAYS OF AGE, Promoter: NONE USED) 56%, 52%, 7%, not calculated; (Carcinogen: 7,12-DIMETHYLBENZ[A]ANTHRACENE, 57-97-6, Dose [Inhibitor]: 0, 0.02% IN 20% FAT DIET CONTAINING 4% LINOLEIC ACID BEGINNING 7 D POST CARCINOGEN DOSE AND CONTINUING FOR DURATION OF S, Route [Inhibitor]: ORAL, Species: RAT, Strain/Sex: SPRAGUE-DAWLEY/FEMALE, Target Tissue: Type of Lesion: MAMMARY GLAND: ADENOCARCINOMA, Dose [Carcinogen]: 5 MG AT 50-53 DAYS OF AGE, Promoter: NONE USED) 53%, 61%, -15%, not calculated; (Carcinogen: 7,12-DIMETHYLBENZ[A]ANTHRACENE, 57-97-6, Dose [Inhibitor]: 0, 0.02% IN 20% FAT DIET CONTAINING 12% LINOLEIC ACID BEGINNING 7 D POST CARCINOGEN DOSE AND CONTINUING FOR DURATION OF, Route [Inhibitor]: ORAL, Species: RAT, Strain/Sex: SPRAGUE-DAWLEY/FEMALE, Target Tissue: Type of Lesion: MAMMARY GLAND: ADENOCARCINOMA, Dose [Carcinogen]: 5 MG AT 50-53 DAYS OF AGE, Promoter: NONE USED) 69%, 55%, 20%, not calculated; (Carcinogen: 7,12-DIMETHYLBENZ[A]ANTHRACENE, 57-97-6, Dose [Inhibitor]: 0, 0.02% IN HIGH FAT DIET (20% CORN OIL) BEGINNING 7 D POST CARCINOGEN DOSE AND CONTINUING FOR DURATION OF STUDY (STUDY, Route [Inhibitor]: ORAL, Species: RAT, Strain/Sex: SPRAGUE-DAWLEY/FEMALE, Target Tissue: Type of Lesion: MAMMARY GLAND: ADENOCARCINOMA, Dose [Carcinogen]: 5 MG AT 50-53 DAYS OF AGE, Promoter: NONE USED) 88%, 91%, -3%, not calculated; (Carcinogen: 7,12-DIMETHYLBENZ[A]ANTHRACENE, 57-97-6, Dose [Inhibitor]: 0, 0.02% IN HIGH FAT DIET (20% CORN OIL) BEGINNING 7 D POST CARCINOGEN DOSE AND CONTINUING FOR DURATION OF STUDY (STUDY, Route [Inhibitor]: ORAL, Species: RAT, Strain/Sex: SPRAGUE-DAWLEY/FEMALE, Target Tissue: Type of Lesion: MAMMARY GLAND: TUMOR, Dose [Carcinogen]: 5 MG AT 50-53 DAYS OF AGE, Promoter: NONE USED) 47%, 56%, -19%, not calculated; (Carcinogen: 7,12-DIMETHYLBENZ[A]ANTHRACENE, 57-97-6, Dose [Inhibitor]: 0, 0.02% IN NORMAL FAT DIET (5% CORN OIL) BEGINNING 7 D POST CARCINOGEN DOSE AND CONTINUING FOR DURATION OF STUDY (STUDY, Route [Inhibitor]: ORAL, Species: RAT, Strain/Sex: SPRAGUE-DAWLEY/FEMALE, Target Tissue: Type of Lesion: MAMMARY GLAND: ADENOCARCINOMA, Dose [Carcinogen]: 5 MG AT 50-53 DAYS OF AGE, Promoter: NONE USED) 59%, 83%, -41%, not calculated.
